According to US4863935A, “Mitomycin compounds having useful anti-tumor activity” (priority 1986, dated 1989):

Assays:
[1] = LD50 acute toxicity, ddy mice, single abdominal injection; settings: mouse, in vivo, ip, 5 ddy mice, 14 days observation, Behrens-Koerber's method
Text: (§1) As used herein, the term "LD50 " denotes the acute toxicity. The term "ED50 " denotes the administered amount needed for reducing the volume of Sarcoma 180 solid tumours in animals to 50% of the corresponding tumour volume in control (untreated) animals. The term "WBC4000 " denotes the minimum dose of the drug needed to reduce the number of peripheral leucocytes to 4000/mm^3. A greater TI value results in a broader tolerance to the drug, which is advantageous for higher anti-tumour activity and decreased toxicity. The term "T" used herein denotes the average survival days of the test animals administered with the test compound. The term "C" denotes the average survival days of the control (untreated) animals. The term "OPD" denotes the dose of the drug resulting in the highest survival ratio. The term "ILS30 " denotes a 30% increase of life-span.
LD50, ED50 and WBC4000 were respectively determined as follows:
Each animal of the test group, consisting of 5 ddy mice, was administered once with a test compound by abdominal injection. […] To determine the LD50 value, Behrens-Koerber's method was applied.

Sarcoma 180 solid tumour = assay: ED50 against Sarcoma 180 solid tumour implanted in mice; assay type: in vivo, male mouse (ddy strain); settings: for (CI)c: (CI of test compound)/(CI of mitomycin C), CI = LD50/ED50; for ED50: Mus musculus, Sarcoma-180, iv, 168 h, i.v. (tail vein) 24 h after implantation, tumour volume at 7 days, dose for T/C of 0.5
Text: With regard to the so-called chemotherapeutic index viz. the CI value against sarcoma 180 solid tumour, expressed by the formula: […]
as §1
the term (CI)c denotes (CI of the test compound)/(CI of mitomycin C), and
5×10^6 sarcoma 180 solid tumor cells were abdominally implanted into ddy mice. 7 days after this, ascites cells were sampled. The cells were washed once with a sterilized physiological saline and were used to prepare a cell suspension containing 5×10^7 cells per ml of a sterilized physiological saline. On each occasion, 0.1 ml of the cell suspension was subcutaneously implanted under the skin of the right armpit of a male mouse (ddy strain; body weight 20±2 g). The test compound which was dissolved in a physiological saline with or without addition of Tween 80 was injected into the tail vein of each animal of a group consisting of 5 mice at a dose of 0.1-0.2 ml 24 hours after the implantation of the tumor cells.
The anti-tumor activity was determined in the following manner:
7 days after the implantation, the major axis (a) and the minor axis (b) of the tumour were measured to calculate a value of (a×b^2)/2 which corresponds to the volume of the tumour. The antitumour activity was expressed by the ratio of the volume of the tumour (T) of the group of animals administered with the test compound to the corresponding volume of tumours (C) of the untreated animals.
On graph paper, T/C was plotted on the ordinate using an arithmetic scale and the administered amount of test compound was plotted on the abscissa using a logarithmic scale. The relationship between the dose and T/C was shown by a straight line determined by the method of least squares, from which ED50 viz. a dose corresponding to T/C of 0.5 was obtained.

[2] = tested on: lymphocytic Leukemia P-388; assay: Anti-tumour activity against lymphocytic Leukemia P-388 in mice; assay type: in vivo, mouse, female of CDF strain; settings: for (ILSmax)c: (ILSmax of test compound)/(ILSmax of mitomycin C), ILS=(T-C)/C×100; for (TI)c: (TI of test compound)/(TI of mitomycin C), TI = OPD/dose which results in ILS30; for ED (optimal dose, highest survival) / ED (30% increase of life-span): Mus musculus, P388, ip, i.p. 24 h after implantation; for ED (optimal dose, highest survival): dose resulting in the highest survival ratio, 30 days, read-out: OPD; for ED (30% increase of life-span): read-out: Dose needed to give ILS30
Text: Also, their therapeutic indexes, expressed by the formula:
TI=(OPD)/(dose which results in ILS30),
against lymphocytic Leukemia P-388 and the maximum increased life spans (ILSmax), defined by the formula: […]
as §1
The experiment was carried out in the following manner. 1×10^6 lymphocytic Leukemia P-388 tumour cells were abdominally implanted into each mouse of a group consisting of 5 mice (body weight about 22 g; female of CDF strain). 24 hours after implantation, a physiological saline solution (0.2 ml) containing the test compound with or without addition of Tween 80 was abdominally given to the test animal.
Table 7 indicates anti-tumour activities of selected Compounds (I) against lyphocytic Leukemia P-388.

tumour = settings: background statement; cited from earlier work
bone marrow = settings: background statement; cited from earlier work

## COC(=O)[C@@H](NC(=O)SCCNC1=C(C)C(=O)C2=C(C1=O)[C@@H](COC(N)=O)[C@@]1(OC)[C@H]3N[C@H]3CN21)C(C)C [Compound 9, 7-N--[2-((S)--1-methoxycarbonyl-2-methylpropyl)-aminocarbonylthioethyl]mitomycin C]
[1]
  LD50 at 336 h: 37.5 mg/kg
Sarcoma 180 solid tumour
  (CI)c: 0.81
  ED50: 15.9 mg/kg
[2]
  (ILSmax)c: > 1.54
  (TI)c: 0.92
  ED (optimal dose, highest survival): 12.5 mg/kg
  ED (30% increase of life-span): 0.84 mg/kg

## CCNC(=O)SCCNC1=C(C)C(=O)C2=C(C1=O)[C@@H](COC(N)=O)[C@@]1(OC)[C@H]3N[C@H]3CN21 [Compound 23, 7-N--(2-ethylaminocarbonylthioethyl)mitomycin C]
[1]
  LD50 at 336 h: 52.5 mg/kg
Sarcoma 180 solid tumour
  (CI)c: 2.48
  ED50: 8.3 mg/kg
[2]
  (ILSmax)c: 1.16
  (TI)c: 3.28~1.64
  ED (optimal dose, highest survival): 25 mg/kg
  ED (30% increase of life-span): 0.33 mg/kg

## CCNC(=S)SCCNC1=C(C)C(=O)C2=C(C1=O)[C@@H](COC(N)=O)[C@@]1(OC)[C@H]3N[C@H]3CN21 [Compound 39, 7-N--(2-ethylaminothiocarbonylthioethyl)mitomycin C]
[1]
  LD50 at 336 h: 45 mg/kg
Sarcoma 180 solid tumour
  (CI)c: 2.40
  ED50: 7.8 mg/kg
[2]
  (ILSmax)c: > 1.60
  (TI)c: 2.74
  ED (optimal dose, highest survival): 25 mg/kg
  ED (30% increase of life-span): 0.57 mg/kg

## CO[C@@]12[C@H](COC(N)=O)C3=C(C(=O)C(C)=C(NCCSC(=O)NC4CCCCC4)C3=O)N1C[C@@H]1N[C@@H]12 [Compound 29, 7-N--(2-cyclohexylaminocarbonylthioethyl)mitomycin C]
[1]
  LD50 at 336 h: 43.8 mg/kg
Sarcoma 180 solid tumour
  (CI)c: 1.43
  ED50: 12 mg/kg
[2]
  (ILSmax)c: 1.69
  (TI)c: 2.45
  ED (optimal dose, highest survival): 25 mg/kg
  ED (30% increase of life-span): 0.85 mg/kg

## CO[C@@]12[C@H](COC(N)=O)C3=C(C(=O)C(C)=C(NCCSC(=O)NCC(C)C)C3=O)N1C[C@@H]1N[C@@H]12 [Compound 24, 7-N--(2-isobutylaminocarbonylthioethyl)mitomycin C]
[1]
  LD50 at 336 h: 22.5 mg/kg
Sarcoma 180 solid tumour
  (CI)c: 0.89
  ED50: 9.9 mg/kg
[2]
  (ILSmax)c: 1.26
  (TI)c: 2.16
  ED (optimal dose, highest survival): 25 mg/kg
  ED (30% increase of life-span): 0.5 mg/kg

## CO[C@@]12[C@H](COC(N)=O)C3=C(C(=O)C(C)=C(N)C3=O)N1C[C@@H]1N[C@@H]12 [mitomycin C]
tumour
  anti-tumour activity: strong anti-tumour activity
Bone marrow
  toxicity to bone marrow: strong toxicity to bone marrow
